Several values for one entry are separate records, joined by “and”; a condition that tells them apart may be missing. Equal values may be shown once.
How the values were obtained:
[1] = tested on: Aparima Gold swede (Brassica sp., BRSSS); experiment: Example 1 pot trials, postemergence crop safety, visual phytotoxicity
[2] = tested on: Spring Argentine canola (Brassica napus, BRSNS); experiment: Example 3 field trials (Canada), postemergence crop safety, visual phytotoxicity
[3] = BRSNS, trial 1, 17DAA1, 0.62 g ae/ha
[4] = BRSNS, trial 1, 17DAA1, 1.25 g ae/ha
[5] = BRSNS, trial 1, 17DAA1, 2.5 g ae/ha
[6] = BRSNS, trial 1, 17DAA1, 5 g ae/ha
[7] = BRSNS, trial 1, 32DAA1, 0.62 g ae/ha

For COC(=O)c1nc(-c2ccc(Cl)c(OC)c2F)cc(N)c1Cl [Halauxifen-methyl, methyl 4-amino-3-chloro-6-(4-chloro-2-fluoro-3-methoxyphenyl)-2-pyridineccarboxylate], the “Mean % Visual Injury” value ([1]; 3DAA1, 15 g ae/ha) was 14.4%, the “Mean % Visual Injury” value ([1]; 7DAA1, 15 g ae/ha) was 16.2% and the “Mean % Visual Injury” value ([1]; 15DAA1, 15 g ae/ha) was 16.2%. For the same compound, the “Mean % Visual Injury” value ([1]; 28DAA1, 15 g ae/ha) was 39.0%, the “Mean % Visual Injury” value ([2]; BRSNS, 7DAAA, 5 g ae/ha (Tables 10, 11)) was 0.8% and the “Mean % Visual Injury” value ([2]; BRSNS, 15DAAA, 5 g ae/ha (Tables 10, 11)) was 50.5%. For the same compound, the “Mean % Visual Injury” value ([2]; BRSNS, 27DAAA, 5 g ae/ha (Tables 10, 11)) was 48.5%, the “Mean % Visual Injury” value ([2]; BRSNS, 57DAAA, 5 g ae/ha (Tables 10, 11)) was 30.3% and the “Mean % Visual Injury” value ([2]; BRSNS, trial 1, 7DAA1, 1.25 g ae/ha) was 1.8%. For the same compound, the “Mean % Visual Injury” value ([2]; BRSNS, trial 1, 7DAA1, 2.5 g ae/ha) was 1.8%, the “Mean % Visual Injury” value ([2]; BRSNS, trial 1, 7DAA1, 5 g ae/ha) was 2.0% and the “Mean % Visual Epinasty” value [2, 3] was 2.5%. For the same compound, the “Mean % Visual Injury” value [2, 3] was 2.5%, the “Mean % Visual Epinasty” value [2, 4] was 2.5% and the “Mean % Visual Injury” value [2, 4] was 2.5%. For the same compound, the “Mean % Visual Epinasty” value [2, 5] was 3.0%, the “Mean % Visual Injury” value [2, 5] was 3.3% and the “Mean % Visual Epinasty” value [2, 6] was 2.5%. For the same compound, the “Mean % Visual Injury” value [2, 6] was 3.3%, the “Mean % Visual Epinasty” value [2, 7] was 5.0% and the “Mean % Visual Injury” value [2, 7] was 8.3%. The “Mean % Visual Injury” value ([2]; BRSNS, trial 1, 32DAA1, 1.25 g ae/ha) was 13.0%, the “Mean % Visual Injury” value ([2]; BRSNS, trial 1, 49DAA1, 0.62 g ae/ha) was 0.3% and the “Mean % Visual Injury” value ([2]; BRSNS, trial 1, 49DAA1, 1.25 g ae/ha) was 2.3%. The “Mean % Visual Injury” value ([2]; BRSNS, trial 1, 49DAA1, 2.5 g ae/ha) was 2.5%, the “Mean % Visual Injury” value ([2]; BRSNS, trial 2, 8DAA1, 5 g ae/ha) was 4.0% and 3.0% and 2.0% and the “Mean % Visual Injury” value ([2]; BRSNS, trial 2, 8DAA1, 10 g ae/ha) was 4.8% and 3.3% and 2.8% and 2.0%. For the same compound, the “Mean % Visual Injury” value ([2]; BRSNS, trial 2, 17DAA1, 10 g ae/ha) was 35.5%, the “Mean % Visual Epinasty” value ([2]; BRSNS, trial 2, 35DAA1, 10 g ae/ha) was 4.0% and 2.8% and the “Mean % Visual Injury” value ([2]; BRSNS, trial 2, 48DAA1, 5 g ae/ha) was 1.8% and 1.5%. The “Mean % Visual Epinasty” value ([2]; BRSNS, trial 3, 6DAA1, 5 g ae/ha) was 9.5%, the “Mean % Visual Epinasty” value ([2]; BRSNS, trial 3, 6DAA1, 10 g ae/ha) was 8.8% and the “Mean % Visual Epinasty” value ([2]; BRSNS, trial 3, 23DAA1, 2.5 g ae/ha) was 38.8%. For the same compound, the “Mean % Visual Epinasty” value ([2]; BRSNS, trial 3, 23DAA1, 5 g ae/ha) was 50.0%, the “Mean % Visual Injury” value ([2]; BRSNS, trial 3, 33DAA1, 5 g ae/ha) was 6.5% and 2.0% and the “Mean % Visual Injury” value ([2]; BRSNS, trial 3, 33DAA1, 10 g ae/ha) was 5.5%. For the same compound, the “Mean % Visual Injury” value ([2]; BRSNS, trial 3, 69DAA1, 2.5 g ae/ha) was 3.0%, the “Mean % Visual Injury” value ([2]; BRSNS, trial 3, 69DAA1, 5 g ae/ha) was 4.0% and the “Mean % Visual Injury” value ([2]; BRSNS, trial 4, 8DAA1, 5 g ae/ha) was 8.0%. For the same compound, the “Mean % Visual Injury” value ([2]; BRSNS, trial 4, 15DAA1, 0.62 g ae/ha) was 3.5%, the “Mean % Visual Injury” value ([2]; BRSNS, trial 4, 15DAA1, 2.5 g ae/ha) was 14.3% and the “Mean % Visual Epinasty” value ([2]; BRSNS, trial 4, 17DAA1, 5 g ae/ha) was 23.3%. The “Mean % Visual Injury” value ([2]; BRSNS, trial 4, 41DAA1, 5 g ae/ha) was 8.0%, the “Mean % Visual Injury” value ([2]; BRSNS, trial 4, 82DAA1, 5 g ae/ha) was 6.0% and the “Mean % Visual Injury” value ([2]; BRSNS, trial 5, 7DAA1, 5 g ae/ha) was 7.5%. The “Mean % Visual Injury” value ([2]; BRSNS, trial 5, 7DAA1, 10 g ae/ha) was 9.0% and 3.5% and 2.0% and 1.5%, the “Mean % Visual Injury” value ([2]; BRSNS, trial 5, 15DAA1, 5 g ae/ha) was 27.0% and the “Mean % Visual Injury” value ([2]; BRSNS, trial 5, 15DAA1, 10 g ae/ha) was 9.0% and 2.5% and 1.0%. For the same compound, the “Mean % Visual Injury” value ([2]; BRSNS, trial 5, 36DAA1, 10 g ae/ha) was 6.0%, the “Mean % Visual Injury” value ([2]; BRSNS, trial 5, 79DAA1, 10 g ae/ha) was 3.0% and 4.5% and 5.3% and the “Mean % Visual Injury” value ([2]; BRSNS, trial 6, 6DAA1, 5 g ae/ha) was 24.5%. For the same compound, the “Mean % Visual Injury” value ([2]; BRSNS, trial 6, 6DAA1, 10 g ae/ha) was 27.5%, the “Mean % Visual Injury” value ([2]; BRSNS, trial 6, 23DAA1, 2.5 g ae/ha) was 38.8% and the “Mean % Visual Injury” value ([2]; BRSNS, trial 6, 23DAA1, 5 g ae/ha) was 52.5%. For the same compound, the “Mean % Visual Injury” value ([2]; BRSNS, trial 6, 33DAA1, 2.5 g ae/ha) was 22.5%, the “Mean % Visual Injury” value ([2]; BRSNS, trial 6, 33DAA1, 5 g ae/ha) was 43.0% and the “Mean % Visual Injury” value ([2]; BRSNS, trial 6, 59DAA1, 2.5 g ae/ha) was 28.5%. For the same compound, the “Mean % Visual Injury” value ([2]; BRSNS, trial 7, 17DAA1, 5 g ae/ha) was 45.0%, the “Mean % Visual Injury” value ([2]; BRSNS, trial 7, 27DAA1, 5 g ae/ha) was 34.0% and the “Mean % Visual Injury” value ([2]; BRSNS, trial 8, 7DAA1, 5 g ae/ha) was 0.8%. The “Mean % Visual Injury” value ([2]; BRSNS, trial 8, 57DAA1, 0.62 g ae/ha) was 4.8%, the “Mean % Visual Injury” value ([2]; BRSNS, trial 9, 27DAA1, 5 g ae/ha) was 6.8% and the “Mean % Visual Injury” value ([2]; BRSNS, trial 9, 60DAA1, 10 g ae/ha) was 22.5% and 12.5%. For the same compound, the “Mean % Visual Injury” value ([2]; Table 14, 7DAAA, halauxifen-methyl 5, quinclorac 101 g ae/ha, alone or mixed) was 0.8%, the “Mean % Visual Injury” value ([2]; Table 14, 15DAAA, halauxifen-methyl 5, quinclorac 101 g ae/ha, alone or mixed) was 50.5% and the “Mean % Visual Injury” value ([2]; Table 14, 27DAAA, halauxifen-methyl 5, quinclorac 101 g ae/ha, alone or mixed) was 48.5%. The “Mean % Visual Injury” value ([2]; Table 14, 57DAAA, halauxifen-methyl 5, quinclorac 101 g ae/ha, alone or mixed) was 30.3%, the “Mean % Visual Injury” value ([2]; Table 15, 7DAAA, halauxifen-methyl 5, clopyralid-olamine 150, quinclorac 101 g ae/ha, alone or mixed) was 0.8% and the “Mean % Visual Injury” value ([2]; Table 15, 15DAAA, halauxifen-methyl 5, clopyralid-olamine 150, quinclorac 101 g ae/ha, alone or mixed) was 50.5%. The “Mean % Visual Injury” value ([2]; Table 15, 27DAAA, halauxifen-methyl 5, clopyralid-olamine 150, quinclorac 101 g ae/ha, alone or mixed) was 48.5%, the “Mean % Visual Injury” value ([2]; Table 15, 57DAAA, halauxifen-methyl 5, clopyralid-olamine 150, quinclorac 101 g ae/ha, alone or mixed) was 30.3% and the “Mean % Visual Injury” value ([2]; Table 16, 7DAAA, halauxifen-methyl 5 g ae/ha, alone or plus isoxadifen-ethyl 5 g ae/ha) was 0.8%. The “Mean % Visual Injury” value ([2]; Table 16, 15DAAA, halauxifen-methyl 5 g ae/ha, alone or plus isoxadifen-ethyl 5 g ae/ha) was 50.5%, the “Mean % Visual Injury” value ([2]; Table 16, 27DAAA, halauxifen-methyl 5 g ae/ha, alone or plus isoxadifen-ethyl 5 g ae/ha) was 48.5% and the “Mean % Visual Injury” value ([2]; Table 16, 57DAAA, halauxifen-methyl 5 g ae/ha, alone or plus isoxadifen-ethyl 5 g ae/ha) was 30.3%. The “Mean % Visual Injury” value ([2]; Table 17, 7DAAA, halauxifen-methyl 5, clopyralid-olamine 150 g ae/ha alone, or both mixed with isoxadifen-ethyl 5 g ae/ha) was 0.8%, the “Mean % Visual Injury” value ([2]; Table 17, 15DAAA, halauxifen-methyl 5, clopyralid-olamine 150 g ae/ha alone, or both mixed with isoxadifen-ethyl 5 g ae/ha) was 50.5% and the “Mean % Visual Injury” value ([2]; Table 17, 27DAAA, halauxifen-methyl 5, clopyralid-olamine 150 g ae/ha alone, or both mixed with isoxadifen-ethyl 5 g ae/ha) was 48.5%. The “Mean % Visual Injury” value ([2]; Table 17, 57DAAA, halauxifen-methyl 5, clopyralid-olamine 150 g ae/ha alone, or both mixed with isoxadifen-ethyl 5 g ae/ha) was 30.3%.

— patent US20170354148A1, “SAFENED HERBICIDAL COMPOSITIONS CONTAINING HALAUXIFEN AND METHODS OF USE THEREOF IN BRASSICA SPECIES” (Dow AgroSciences LLC, priority 2016, published 2017)
